Where a name gives a salt, the structure may show the parent alone.

By ED50 is commonly meant the dose that gives a 50% effect, or the effect in half of the subjects.

One assay deals with Compound 48/80 induced Lethality. Nature of the assay: Protection of Rats from Compound 48/80 induced Lethality. Conditions: Rattus norvegicus, protection from Compound 48/80 induced lethality, read-out: ED50. The assay is classed as in vivo.
`CN1CCC2(CC1)c1ccccc1CCn1c(C(N)=O)cnc12.O` [Compound 80, 6,11-dihydro-1′-methylspiro[5H-imidazo[2,1-b][3]benzazepine-11,4′-piperidine]-3-carboxamide monohydrate]: the ED50 was found to be 0.63 mg/kg.

As to `Cl.Cl.NC(=O)c1nc2n(c1C(N)=O)CCc1ccccc1C21CCNCC1.O` [Compound 53, 6,11-dihydrospiro[5H-imidazo[2,1-b][3]benzazepine-11,4′-piperidine]-2,3-dicarboxamide dihydrochloride monohydrate], the ED50 was 0.31 mg/kg. Same read-out and setting: with `Cl.Cl.NC(=O)c1cnc2n1CCc1ccccc1C21CCNCC1` [Compound 17, 5,6-dihydrospiro[11H-imidazo[2,1-b][3]-benzazepine-11,4′-piperidine]-3-carboxamide dihydrochloride] the figure was 0.04 mg/kg. The same measure, in the same setting: with `Clc1cnc2n1CCc1ccccc1C21CCNCC1.O=C(O)/C=C/C(=O)O` [Compound 20, 3-chloro-6,11-dihydrospiro[5H-imidazo[2,1-b][3]benzazepine-11,4′-piperidine] (E)-2-butenedioate (1:1)] the figure was 0.31 mg/kg. In the case of `CCOC(=O)C(CN1CCC2(CC1)c1ccccc1CCn1c(C(N)=O)cnc12)c1ccccc1` (stereo not drawn) [Compound 64, ethyl 3-(aminocarbonyl)-6,11-dihydro-α-phenylspiro[5H-imidazo-[2,1-b][3]benzazepine-11,4′-piperidine]-1′-propanoate monohydrochloride], the ED50 was determined as 0.31 mg/kg. As to `C1=Cn2ccnc2C2(CCNCC2)c2ccsc21` [Compound 56a, spiro[10H-imidazo[1,2-a]thieno[3,2-d]azepine-10,4′-piperidine]], the ED50 was found to be 2.5 mg/kg.

The assay is the same for the next values; noted with them: protection from Compound 48/80 induced lethality.
For the molecule `CCCCN1CCC2(CC1)c1ccccc1CCn1ccnc12.CCCCN1CCC2(CC1)c1ccccc1CCn1ccnc12.Cl.Cl.Cl.Cl.O` [Compound 3, 1′-butyl-5,6-dihydrospiro[imidazo[2,1-b][3]-benzazepine-11-[11H],4′-piperidine]dihydrochloride.hemihydrate], the “ED50” value is on record as 2.5 mg/kg.

Take `CN1CCC2(CC1)c1ccccc1CCn1ccnc12.O=S(=O)(O)NC1CCCCC1.O=S(=O)(O)NC1CCCCC1` [Compound 1, 6,11-dihydro-1′-methylspiro[5H-imidazo[2,1-b][3]benzazepine-11,4′-piperidine]cyclohexylsulfamate(1:2)]: the “ED50” value is listed as 2.5 mg/kg. In the case of `COCc1cnc2n1CCc1ccccc1C21CCNCC1.O=C(O)/C=C/C(=O)O` [Compound 58, 6,11-dihydro-3-(methoxymethyl)spiro[5H-imidazo[2,1-b][3]benzazepine-11,4′-piperidine]. (E)-2-butenedioate (1:1)], the “ED50” value is on record as 2.5 mg/kg. Turning to “5,6-dihydrospiro[11H-imidazo[2,1-b][3]benzazepine-11,4′-piperidine]-3-methanol (E)-2-butenedioic acid salt (2:1) [Compound 18a]”, the “ED50” value is listed as 0.08 mg/kg. For `NC(=O)c1cnc2n1CCc1ccccc1C21CCN(CCO)CC1` [Compound 62, 6,11-dihydro-1′-(2-hydroxyetehyl)spiro[5H-imidazo[2,1-b][3]-benzazepine-11,4′-piperidine]-3-carboxamide], the “ED50” value is recorded as 0.63 mg/kg. As for “3-(aminocarbonyl)-6,11-dihydrospiro[5H-imidazo[2,1-b][3]-benzazepine-11,4′-piperidine]-1′-carboxylate [Compound 79]”, the “ED50” value amounted to 0.04 mg/kg.

The values above are taken from patent US7087595B2, “Antihistaminic spiro compounds” (Janssen Pharmaceutica, N.V., priority 1998, dated 2006).
